Assay results: patent USRE44543E1, “Naphthalenic compounds as termite bait toxicants” (priority 2002, dated 2013)

Tests used:
Formosan termites = assay: Foraging box bait matrix bioassay, NHA sodium salt (Example 1); format: in vivo, Coptotermes formosanus
Experimental: For bait matrices with a final concentrations of NHA sodium salt of either 250 ppm or 500 ppm, the following procedure was used. A total of 25 mg or 50 mg, respectively of the NHA sodium salt was weighed using a Mettler balance. The NHA sodium salt complex was placed into a 50 ml sterile screw cap conical tube (#62.547.004; Sarstedt, Newton, N.C.) and dissolved with 40 ml nutritive solution described in Example 2 of U.S. patent application Ser. No. 09/294,499 filed Apr. 20, 1999, hereby incorporated by reference. Under a laminar flow hood, this product was mixed with 27 ml more of sterile nutritional supplement in a 250 ml sterile glass bottle (prepared as reported by M. G. Rojas and J. A. Morales-Ramos, April 2001, “Bait matrix for delivery of chitin synthesis inhibitors to the Formosan subterranean termite [Isoptera: Rhinotermitidae],” J. Econ. Entomol. 94(2) :506-510) hereby incorporated by reference. The bottle was tightly closed with a screw cap and manually shaken for 2 minutes. The mixture was added to 33 g of sterile cellulose as reported by Rojas and Morales-Ramos (2001) supra. The mixture was manually homogenized using a stainless steel spatula. To encase the bait matrix, tubes made of fibrous casing material (#124B; L.E.M. Products, Inc., Miamitown, Ohio) were cut into 150 mm long portions as reported by Rojas and Morales-Ramos (2001) supra. Fifty grams of bait matrix containing NHA sodium salt was compacted into one end of the inlet tube, and the open end and of the inlet tube was closed with a rubber band. The bait casing was placed inside of the foraging box adjacent to a 10 g piece of pine wood, taking care that it was partially covered with sand. Control bait matrix was prepared minus NHA, and presented in the same way as the treatment matrix to Formosan termites taken from three different colonies, with two boxes per locality totaling six boxes of 2500 termites per treatment. (Rojas and Morales-Ramos [2001] supra). All the experimental boxes were maintained under dark conditions at 27±1° C., and 90±2% relative humidity. Observations were done every 72 hours until all the termites died. The time to reach 100% mortality was measured and recorded. Mean comparisons among treatments and control were conducted.

[1] = system: Formosan subterranean termite; assay: Field test of NHA pressure treated aspen wood in bait stations, New Orleans; format: in vivo, Coptotermes formosanus
Description: NHA as a wood preservative has been extensively studied (F. Green III, T. A. Kuster, L. Ferge, and T. L. Highley, 1997. Protection of southern pine from fungal decay and termite damage with N,N-Naphthaloylhydroxylamine. Inter. Biodeter. and Biodeg. 39(2-3):103-111; D. M. Crawford and F. Green III, 1999. Protection of southern pine using N,N-Naphthaloylhydroxylamine: Field tests, soft-rot cellars and aquatic bioassay leach testing. Internat. Res. Group on Wood Preserv. Doc. No: IRG/WP 99-30204). Monitoring termite activity in baiting systems is conducted by the use of wooden interceptors constructed from out of aspen, southern yellow pine, white or yellow poplar. In humid environments such as the Southeastern United States, a problem with degradations of such interceptors by fungi frequently occurs. We have noticed that low concentrations of NHA from 200 to 1000 ppm is acceptable to retard fungal growth without presenting any deleterious effect in the termites when incorporated into wooden materials. For bait efficacy, when the chemical is impregnated on pieces of wood the concentration that is retained varies as well as the efficacy. […]

SMILES: O=C1c2cccc3cccc(c23)C(=O)N1O [NHA, N-hydroxynaphthalimide]
- acceptability of the bait (Formosan termites; NHA >500 ppm): reduced
- time some termite colonies required to start feeding on the bait (Formosan termites; NHA >500 ppm): more than 8 hours
- time to mortality of a 2,500-worker colony (Formosan termites; depending on the health and age of the colony): about 3 weeks
- NHA concentration at which consumption is almost non existent (Formosan termites; in vivo): above 20,000 ppm
- NHA concentration at which the bait becomes unpalatable (Formosan termites; in vivo): above 10,000 ppm
- optimal NHA concentration after field testing [1]: 500 ppm
